Measured values as given in patent publication US11655456B2, “Engineered intestinal tissue and uses thereof” (Organovo, Inc., priority 2016, dated 2023).
Entries after “also recorded” stand apart in the source; their conditions may differ. Values belong to the compound of their own block, whether it stands above or below them.

Key:
BCRP = molecular target: T1, BCRP (Homo sapiens, UniProt Q9UNQ0)
T1 sequence (Q9UNQ0 1-655): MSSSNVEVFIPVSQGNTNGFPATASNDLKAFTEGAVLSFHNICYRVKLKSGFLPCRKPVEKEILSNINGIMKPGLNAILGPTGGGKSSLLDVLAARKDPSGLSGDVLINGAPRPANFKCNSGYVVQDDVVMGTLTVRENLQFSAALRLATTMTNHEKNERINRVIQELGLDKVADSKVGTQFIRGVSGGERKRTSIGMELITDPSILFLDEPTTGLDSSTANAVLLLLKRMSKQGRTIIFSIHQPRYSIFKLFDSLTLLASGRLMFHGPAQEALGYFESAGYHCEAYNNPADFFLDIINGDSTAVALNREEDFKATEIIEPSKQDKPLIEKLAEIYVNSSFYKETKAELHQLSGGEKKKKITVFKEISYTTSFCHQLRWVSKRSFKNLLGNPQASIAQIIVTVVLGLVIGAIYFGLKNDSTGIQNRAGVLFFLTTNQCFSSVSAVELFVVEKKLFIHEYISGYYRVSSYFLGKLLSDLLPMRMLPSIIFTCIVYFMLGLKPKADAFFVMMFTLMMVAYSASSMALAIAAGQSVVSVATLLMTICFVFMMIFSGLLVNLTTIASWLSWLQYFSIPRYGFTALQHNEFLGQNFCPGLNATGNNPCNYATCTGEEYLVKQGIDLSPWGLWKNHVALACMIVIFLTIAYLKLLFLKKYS
Protocol: FIGS. 25A-25D show P-gp and BCRP transporter function in 3D bioprinted intestinal tissue.
P-gp and BCRP function were tested in the 3D bioprinted intestinal tissue model by measuring bi-directional transport with and without inhibition (FIG. 25C).

[1] = system: 3D bioprinted intestinal tissue; test: LDH activity / release from 3D bioprinted intestinal tissue after toxicant treatment
[2] = system: 3D bioprinted intestinal tissue; test: Barrier function (TEER) of 3D bioprinted intestinal tissue after toxicant treatment; settings: 24 hour incubation, varying doses
[3] = system: prostaglandin E2 synthesis; test: Prostaglandin E2 synthesis in 3D bioprinted intestinal tissue; type: cell-based, human; settings: all indomethacin doses tested
[4] = system: 3D bioprinted intestinal tissue; settings: higher / increasing doses of indomethacin
COX2, IL8, and TNFα = test: Inflammation gene expression after TNFα treatment of 3D bioprinted intestinal tissue; type: cell-based, human; settings: TNFα high dose, 24 hours
Protocol: To characterize the 3D bioprinted intestinal model response to inflammation, commonly associated with GI toxicity as well as chronic disease conditions, tissues were treated with a high dose of pro-inflammatory cytokine TNFα for 24 hours and evaluated for changes in morphology, LDH release, and gene expression (FIG. 28).

[5] = system: 3D bioprinted intestinal tissue
[6] = system: 3D bioprinted intestinal tissue; remark: listed apart in the source
[7] = system: 3D printed tissues and 2D epithelial monolayers of Caco-2/STC-1 cells; test: Lucifer Yellow permeability (barrier integrity) of 3D printed Caco-2 tissues and 2D monolayers; type: in vitro ADME, human; settings: bioprinted 3D constructs and 2D monolayers (Caco-2/STC-1), later stages of culture
Protocol: FIG. 5 is a bar graph showing permeability comparison of 2D monolayers and 3D bioprinted Caco-2 tissues measured by Lucifer Yellow. […] Permeability was measured on 3D printed tissues and compared to 2D epithelial monolayers of Caco-2/STC-1 cells and interstitium alone.
Experiment time course studies were run 4, 7, and 14 days post addition of epithelial cells. Tissues were measured for GLP-1 secretion into supernatant. Tissues were also measured for barrier function at multiple time points by TEER or Lucifer yellow (non-lytic assays). After incubation, the tissues were fixed in paraformaldehyde (PFA) for histology or lysed for RNA extraction.

Compound: O=C1c2c(O)ccc(O)c2C(=O)c2c(NCCNCCO)ccc(NCCNCCO)c21 [mitoxantrone]
- permeability in the B to A direction compared with A to B (BCRP): much higher permeability

Compound: COc1ccc2c(c1)c(CC(=O)O)c(C)n2C(=O)c1ccc(Cl)cc1 [indomethacin]
- LDH activity ([1]; 24 hour treatment, increasing indomethacin dose): increased
- LDH release ([1]; indomethacin doses above 0.25 mM): significantly increased
- barrier function measured by TEER [2]: dose response decrease in TEER; also recorded: dose-dependent decrease in barrier function; also recorded: decreased TEER
- prostaglandin E2 synthesis [3]: decreased to similar levels for all indomethacin doses tested; also recorded: inhibition of prostaglandin E2 synthesis
- E-Cadherin expression (marker of barrier function) [4]: reduction in E-Cadherin; also recorded: decreased expression of E-Cadherin
- histology of the epithelium [4]: disruption of the epithelium and distorted nuclear staining; also recorded: increased disruption of the epithelial layer

Compound: TNFα
- gene expression of COX2, IL8 and TNFα (COX2, IL8, and TNFα): upregulated
- barrier function [5]: decreased barrier function

- permeability in the apical to basal direction [6]: moderate
Compound: C[C@H]1O[C@@H](O[C@H]2[C@@H](O)C[C@H](O[C@H]3[C@@H](O)C[C@H](O[C@H]4CC[C@@]5(C)[C@H](CC[C@@H]6[C@@H]5C[C@@H](O)[C@]5(C)[C@@H](C7=CC(=O)OC7)CC[C@]65O)C4)O[C@@H]3C)O[C@@H]2C)C[C@H](O)[C@@H]1O [digoxin]

Compound: CC[C@@]1(O)C(=O)OCc2c1cc1n(c2=O)Cc2cc3c(CN(C)C)c(O)ccc3nc2-1 [topotecan]
- efflux ratio (BCRP; control conditions): 8.8

- Lucifer Yellow permeability [7]: < 3%
Compound: Lucifer yellow
